A short description of assay [1]: DPPH free radical scavenging activity assay. The method, then: The DPPH radical scavenging activity assay has been performed according to the method of Blois et al. with minor modifications (Blois [1958]). Butylated Hydroxy Toluene (BHT), Butylated Hydroxy Anisole (BHA), and α‐TOC (Tocopherol) were also assayed as standards for comparison.
Assay [2] is described as follows: ABTS cation radical decolorization activity. Particulars: footnote a: given as IC50. The text has this: The procedure was followed from the literature (Miller et al. [1993]) and the measurements at 734 nm were read for each concentration relative to a blank absorbance (DMSO). BHA, BHT, and ‐TOC were used as standards. The obtained values were compared to the standards.

The nature of assay [3]: CUPRAC cupric ion‐reducing antioxidant capacity. Particulars: absorbance 450 nm after 30 min. How it is done:
The antioxidant capacity assay to identify the reductive efficiencies of the essential oil for Cu metal was performed according to the method reported in the literature (Apak et al. [2005]). The absorbances were measured at 450 nm after 30 min. BHA, BHT, and α‐TOC were used as standards.

The subject of a further assay is four yeast strains. Details: method as in Kyung and Fleming [1997]. Conditions: ref Kyung and Fleming [1997]; cited from earlier work.
Assay [4] deals with various bacterial strains. More on the design: method as in Kyung and Fleming [1997]. Particulars: ref Kyung and Fleming [1997]; cited from earlier work.
The target in assay [5] is T1, Acetylcholinesterase (AChE) (Electrophorus electricus, UniProt O42275).
T1 construct: purchased Sigma C3389
T1 sequence (O42275 24-633): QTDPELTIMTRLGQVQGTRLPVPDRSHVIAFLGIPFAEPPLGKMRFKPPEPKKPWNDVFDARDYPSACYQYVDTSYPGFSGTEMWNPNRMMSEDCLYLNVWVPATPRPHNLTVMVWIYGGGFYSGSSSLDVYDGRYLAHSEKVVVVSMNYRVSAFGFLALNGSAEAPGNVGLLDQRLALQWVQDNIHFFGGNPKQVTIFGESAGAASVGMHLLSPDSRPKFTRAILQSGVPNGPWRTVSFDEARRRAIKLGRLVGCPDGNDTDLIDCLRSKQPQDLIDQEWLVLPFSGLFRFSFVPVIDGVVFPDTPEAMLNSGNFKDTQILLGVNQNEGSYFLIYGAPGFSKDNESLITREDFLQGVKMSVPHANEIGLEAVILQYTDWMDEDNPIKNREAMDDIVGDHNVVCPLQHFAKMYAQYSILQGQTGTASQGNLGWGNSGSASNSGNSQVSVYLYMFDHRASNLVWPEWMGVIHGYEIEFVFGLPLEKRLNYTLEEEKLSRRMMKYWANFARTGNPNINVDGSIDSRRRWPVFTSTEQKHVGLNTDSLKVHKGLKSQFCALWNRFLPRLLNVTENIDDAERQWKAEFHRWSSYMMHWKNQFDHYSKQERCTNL
Details: method as in Ryan and Bryan [1988]. Conditions: ref Ryan and Bryan [1988]; cited from earlier work.

Here are results for five compounds from article PMC12227661, “Shedding Light on the Phytochemical and Biological Fingerprints of Fibigia clypeata (L.) Medik Essential Oil as a Pharmacotherapeutic Agent” (Food Science & Nutrition, 2025).

In brackets after ≈: the same amount, converted by molar mass.

As for `COc1ccc(O)c(C(C)(C)C)c1` [BHA, Butylated Hydroxy Anisole], the “IC50 values DPPH free radical” value in assay [1] is 3.22 ± 0.08 µg/mL (≈ 17.9 µM). Also, the “A 0.5 values ABTS cation radical” value in assay [2] is 2.74 ± 0.03 µg/mL. Also, in assay [3], the “A 0.5 values CUPRAC” value stood at 4.14 ± 0.17 µg/mL.

For `Cc1cc(C(C)(C)C)c(O)c(C(C)(C)C)c1` [BHT, Butylated Hydroxy Toluene], the “IC50 values DPPH free radical” value in assay [1] came to 16.71 ± 0.80 µg/mL (≈ 75.8 µM). The “A 0.5 values ABTS cation radical” value in assay [2] came to 4.44 ± 0.30 µg/mL. Also, in assay [3], the “A 0.5 values CUPRAC” value stood at 3.93 ± 0.24 µg/mL.

As to `CSSSC` [Compound 2, Dimethyl trisulfide], the figures for the MIC (in the assay on four yeast strains; in assay [4]) were 20 ppm and 200 ppm, respectively.

On to `C=CC(C)(O)CCC=C(C)C` (stereo not drawn) [Compound 6, Linalool], for which, in assay [5], the AChE inhibition result is “no significant inhibition”.

For the compound `Cc1c(C)c2c(c(C)c1O)CC[C@@](C)(CCC[C@H](C)CCC[C@H](C)CCCC(C)C)O2` [α‐TOC, Tocopherol], the “IC50 values DPPH free radical” value in assay [1] was determined as 1.41 ± 0.04 µg/mL (≈ 3.27 µM). For the same compound, the “A 0.5 values ABTS cation radical” value in assay [2] came to 8.48 ± 0.43 µg/mL. Besides, the “A 0.5 values CUPRAC” value in assay [3] stood at 13.64 ± 0.32 µg/mL.
